{"source": "ChEMBL document CHEMBL1938312", "about": "“Design and combinatorial synthesis of a novel kinase-focused library using click chemistry-based fragment assembly” (Bioorg Med Chem Lett, 2012)", "key": {"[1]": {"target": "Ephrin type-A receptor 2 (Homo sapiens) (UniProt P29317)", "sequence (P29317 whole entry)": "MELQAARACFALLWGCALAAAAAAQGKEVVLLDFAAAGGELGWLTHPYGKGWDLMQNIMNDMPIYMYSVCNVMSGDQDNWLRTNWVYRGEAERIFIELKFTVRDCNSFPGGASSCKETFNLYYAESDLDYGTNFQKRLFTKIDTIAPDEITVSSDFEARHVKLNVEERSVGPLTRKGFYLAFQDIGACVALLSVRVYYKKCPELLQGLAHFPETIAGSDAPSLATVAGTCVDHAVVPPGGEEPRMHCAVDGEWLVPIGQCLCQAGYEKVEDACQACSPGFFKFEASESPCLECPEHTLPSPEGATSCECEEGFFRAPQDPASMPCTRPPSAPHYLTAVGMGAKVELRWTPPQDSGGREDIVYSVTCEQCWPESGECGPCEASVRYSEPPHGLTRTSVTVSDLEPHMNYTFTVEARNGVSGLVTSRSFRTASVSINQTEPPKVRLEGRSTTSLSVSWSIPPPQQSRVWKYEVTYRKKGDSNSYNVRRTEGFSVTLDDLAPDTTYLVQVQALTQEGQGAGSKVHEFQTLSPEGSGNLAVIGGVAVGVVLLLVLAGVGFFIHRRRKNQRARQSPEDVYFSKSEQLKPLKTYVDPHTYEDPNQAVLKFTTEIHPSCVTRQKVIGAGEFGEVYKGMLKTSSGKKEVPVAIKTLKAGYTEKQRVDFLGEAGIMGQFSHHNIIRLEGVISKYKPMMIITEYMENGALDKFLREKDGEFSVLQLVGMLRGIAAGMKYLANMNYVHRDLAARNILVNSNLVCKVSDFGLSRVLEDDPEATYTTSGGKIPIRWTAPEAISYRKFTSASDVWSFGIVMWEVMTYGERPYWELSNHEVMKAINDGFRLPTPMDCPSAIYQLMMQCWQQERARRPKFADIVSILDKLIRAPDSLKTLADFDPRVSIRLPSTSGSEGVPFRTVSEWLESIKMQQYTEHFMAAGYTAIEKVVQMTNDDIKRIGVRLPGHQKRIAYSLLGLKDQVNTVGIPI", "experiment": "Inhibition of EPHA2 at 10 uM by colorimetric analysis"}, "[2]": {"target": "Insulin-like growth factor 1 receptor (Homo sapiens) (UniProt P08069)", "sequence (P08069 31-736 limits assumed)": "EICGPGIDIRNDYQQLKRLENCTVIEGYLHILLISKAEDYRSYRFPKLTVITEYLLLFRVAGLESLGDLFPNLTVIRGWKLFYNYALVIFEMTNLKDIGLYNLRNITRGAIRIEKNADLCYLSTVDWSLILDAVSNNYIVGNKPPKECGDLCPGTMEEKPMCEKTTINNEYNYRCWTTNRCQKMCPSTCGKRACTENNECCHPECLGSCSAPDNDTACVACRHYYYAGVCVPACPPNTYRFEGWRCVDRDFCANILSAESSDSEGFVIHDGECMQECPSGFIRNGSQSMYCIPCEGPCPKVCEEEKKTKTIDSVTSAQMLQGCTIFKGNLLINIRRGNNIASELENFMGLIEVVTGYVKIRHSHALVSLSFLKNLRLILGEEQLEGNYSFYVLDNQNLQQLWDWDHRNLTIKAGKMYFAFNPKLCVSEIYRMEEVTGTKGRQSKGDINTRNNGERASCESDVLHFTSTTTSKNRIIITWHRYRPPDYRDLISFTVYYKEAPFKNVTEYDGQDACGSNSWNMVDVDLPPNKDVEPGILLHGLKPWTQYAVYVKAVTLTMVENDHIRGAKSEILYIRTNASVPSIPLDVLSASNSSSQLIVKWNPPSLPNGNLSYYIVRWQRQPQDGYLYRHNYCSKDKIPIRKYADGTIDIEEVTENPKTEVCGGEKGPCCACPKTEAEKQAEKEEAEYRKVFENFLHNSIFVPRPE", "sequence (P08069 741-1367 limits assumed)": "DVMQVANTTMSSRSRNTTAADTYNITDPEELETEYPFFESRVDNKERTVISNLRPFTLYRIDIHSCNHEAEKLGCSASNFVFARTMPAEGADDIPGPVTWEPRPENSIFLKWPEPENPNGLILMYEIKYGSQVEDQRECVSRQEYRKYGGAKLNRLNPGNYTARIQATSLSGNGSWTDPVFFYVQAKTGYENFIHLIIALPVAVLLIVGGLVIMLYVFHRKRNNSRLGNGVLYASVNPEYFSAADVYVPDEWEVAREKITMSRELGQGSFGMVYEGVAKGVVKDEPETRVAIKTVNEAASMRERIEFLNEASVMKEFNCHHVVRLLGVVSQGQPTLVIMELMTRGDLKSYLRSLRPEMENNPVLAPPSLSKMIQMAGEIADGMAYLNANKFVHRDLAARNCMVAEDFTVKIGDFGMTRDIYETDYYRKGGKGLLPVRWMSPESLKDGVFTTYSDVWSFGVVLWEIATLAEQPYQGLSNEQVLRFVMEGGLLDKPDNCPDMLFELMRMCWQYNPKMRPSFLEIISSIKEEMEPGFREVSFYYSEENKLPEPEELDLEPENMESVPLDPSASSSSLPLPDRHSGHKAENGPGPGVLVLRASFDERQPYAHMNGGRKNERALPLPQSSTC", "experiment": "Inhibition of IGF1R at 10 uM by colorimetric analysis"}, "[3]": {"target": "T1, Tyrosine-protein kinase ITK/TSK (Homo sapiens) (UniProt Q08881)", "T1 sequence (whole entry)": "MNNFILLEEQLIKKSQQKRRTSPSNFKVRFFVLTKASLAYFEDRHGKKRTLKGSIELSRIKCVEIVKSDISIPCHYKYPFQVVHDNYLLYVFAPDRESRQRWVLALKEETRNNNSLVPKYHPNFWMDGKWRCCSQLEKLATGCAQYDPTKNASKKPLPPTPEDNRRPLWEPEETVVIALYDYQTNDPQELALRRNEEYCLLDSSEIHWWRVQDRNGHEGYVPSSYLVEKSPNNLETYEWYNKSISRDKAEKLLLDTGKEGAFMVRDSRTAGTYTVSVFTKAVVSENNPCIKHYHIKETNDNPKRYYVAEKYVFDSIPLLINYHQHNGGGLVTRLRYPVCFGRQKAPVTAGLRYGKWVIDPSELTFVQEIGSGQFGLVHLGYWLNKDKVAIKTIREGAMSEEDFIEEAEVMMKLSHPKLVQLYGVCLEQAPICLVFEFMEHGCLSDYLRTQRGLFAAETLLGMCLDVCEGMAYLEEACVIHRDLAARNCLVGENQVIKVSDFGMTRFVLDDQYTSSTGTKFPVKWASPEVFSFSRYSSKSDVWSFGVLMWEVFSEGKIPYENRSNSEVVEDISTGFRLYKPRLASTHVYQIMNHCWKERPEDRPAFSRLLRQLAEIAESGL", "experiment": "Inhibition of ITK at 10 uM by colorimetric analysis"}, "[4]": {"target": "Platelet-derived growth factor receptor alpha (Homo sapiens) (UniProt P16234)", "sequence (P16234 whole entry)": "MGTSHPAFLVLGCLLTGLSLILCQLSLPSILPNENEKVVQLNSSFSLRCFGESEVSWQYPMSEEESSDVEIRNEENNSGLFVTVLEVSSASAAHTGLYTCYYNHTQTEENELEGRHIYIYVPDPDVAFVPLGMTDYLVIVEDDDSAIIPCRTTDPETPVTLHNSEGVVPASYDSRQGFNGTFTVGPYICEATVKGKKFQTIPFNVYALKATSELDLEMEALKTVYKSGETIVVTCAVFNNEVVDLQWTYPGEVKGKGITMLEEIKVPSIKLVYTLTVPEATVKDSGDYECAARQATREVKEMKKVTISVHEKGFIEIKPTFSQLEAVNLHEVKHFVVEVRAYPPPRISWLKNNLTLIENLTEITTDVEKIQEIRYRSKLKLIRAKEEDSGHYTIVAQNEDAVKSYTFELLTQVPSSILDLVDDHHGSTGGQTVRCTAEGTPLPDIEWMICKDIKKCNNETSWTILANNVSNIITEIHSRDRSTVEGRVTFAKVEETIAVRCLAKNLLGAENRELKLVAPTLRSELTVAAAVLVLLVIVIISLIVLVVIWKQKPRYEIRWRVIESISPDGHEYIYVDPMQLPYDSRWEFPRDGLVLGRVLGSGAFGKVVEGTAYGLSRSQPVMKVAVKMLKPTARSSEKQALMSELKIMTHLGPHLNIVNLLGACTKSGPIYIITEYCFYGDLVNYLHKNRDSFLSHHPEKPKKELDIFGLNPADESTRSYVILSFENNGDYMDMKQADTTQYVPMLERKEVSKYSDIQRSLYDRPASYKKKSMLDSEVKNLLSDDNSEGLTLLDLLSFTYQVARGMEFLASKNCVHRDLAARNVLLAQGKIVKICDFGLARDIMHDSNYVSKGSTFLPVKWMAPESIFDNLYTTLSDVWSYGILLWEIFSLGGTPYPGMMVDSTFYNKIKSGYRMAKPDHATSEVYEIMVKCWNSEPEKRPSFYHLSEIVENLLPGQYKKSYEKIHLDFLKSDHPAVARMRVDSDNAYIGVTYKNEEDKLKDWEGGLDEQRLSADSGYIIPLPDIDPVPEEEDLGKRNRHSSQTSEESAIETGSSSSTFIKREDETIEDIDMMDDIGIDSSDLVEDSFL", "experiment": "Inhibition of PDGFRalpha at 10 uM by colorimetric analysis"}, "[5]": {"target": "T2, Aurora kinase A (Homo sapiens) (UniProt O14965)", "T2 sequence (whole entry)": "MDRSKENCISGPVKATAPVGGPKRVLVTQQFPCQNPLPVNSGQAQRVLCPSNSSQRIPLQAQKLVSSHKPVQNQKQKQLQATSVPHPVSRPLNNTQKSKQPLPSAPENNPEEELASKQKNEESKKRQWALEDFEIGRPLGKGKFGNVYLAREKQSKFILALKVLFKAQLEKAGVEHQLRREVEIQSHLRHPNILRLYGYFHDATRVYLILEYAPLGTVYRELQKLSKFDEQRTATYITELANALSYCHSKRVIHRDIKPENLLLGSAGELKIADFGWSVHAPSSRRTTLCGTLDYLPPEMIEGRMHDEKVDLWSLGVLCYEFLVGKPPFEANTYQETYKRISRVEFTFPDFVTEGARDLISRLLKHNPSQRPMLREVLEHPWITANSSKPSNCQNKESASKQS", "experiment": "Inhibition of Aurora A at 10 uM by colorimetric analysis"}, "[6]": {"target": "T3, Calcium/calmodulin-dependent protein kinase type IV (Homo sapiens) (UniProt Q16566)", "T3 sequence (whole entry)": "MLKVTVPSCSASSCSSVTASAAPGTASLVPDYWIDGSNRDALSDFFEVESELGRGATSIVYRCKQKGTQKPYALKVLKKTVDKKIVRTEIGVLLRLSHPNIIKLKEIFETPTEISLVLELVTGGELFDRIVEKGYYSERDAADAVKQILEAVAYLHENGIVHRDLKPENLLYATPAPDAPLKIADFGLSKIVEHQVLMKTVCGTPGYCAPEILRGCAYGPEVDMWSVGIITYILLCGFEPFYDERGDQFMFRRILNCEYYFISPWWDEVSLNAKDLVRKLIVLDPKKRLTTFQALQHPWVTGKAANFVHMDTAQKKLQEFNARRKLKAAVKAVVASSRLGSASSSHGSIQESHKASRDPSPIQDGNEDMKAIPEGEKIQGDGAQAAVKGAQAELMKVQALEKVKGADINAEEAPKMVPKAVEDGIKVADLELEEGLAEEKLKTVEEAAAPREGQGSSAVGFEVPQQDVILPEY", "experiment": "Inhibition of CaMK4 at 10 uM by colorimetric analysis"}, "[7]": {"target": "Dual specificity tyrosine-phosphorylation-regulated kinase 1B (Homo sapiens) (UniProt Q9Y463)", "sequence (Q9Y463 whole entry, looked up)": "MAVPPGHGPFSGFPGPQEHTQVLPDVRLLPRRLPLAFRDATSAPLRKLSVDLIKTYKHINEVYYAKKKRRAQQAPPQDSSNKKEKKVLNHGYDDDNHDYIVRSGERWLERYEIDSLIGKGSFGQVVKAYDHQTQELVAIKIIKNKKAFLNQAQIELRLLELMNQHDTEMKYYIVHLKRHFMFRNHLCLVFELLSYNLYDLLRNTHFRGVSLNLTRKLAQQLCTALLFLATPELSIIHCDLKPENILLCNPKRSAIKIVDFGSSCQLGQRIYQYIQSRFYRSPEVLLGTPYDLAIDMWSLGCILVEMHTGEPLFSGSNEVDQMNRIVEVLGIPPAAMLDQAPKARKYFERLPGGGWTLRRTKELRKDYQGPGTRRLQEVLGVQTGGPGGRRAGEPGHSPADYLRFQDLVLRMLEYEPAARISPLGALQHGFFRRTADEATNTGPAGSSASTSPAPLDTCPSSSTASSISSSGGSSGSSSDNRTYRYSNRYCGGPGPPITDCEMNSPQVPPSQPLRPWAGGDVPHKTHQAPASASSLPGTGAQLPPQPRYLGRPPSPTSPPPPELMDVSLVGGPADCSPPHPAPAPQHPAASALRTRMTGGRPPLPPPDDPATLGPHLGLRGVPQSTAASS", "experiment": "Inhibition of DYRK1B at 10 uM by colorimetric analysis"}, "[8]": {"target": "MAP kinase-activated protein kinase 2 (Homo sapiens) (UniProt P49137)", "sequence (P49137 whole entry, looked up)": "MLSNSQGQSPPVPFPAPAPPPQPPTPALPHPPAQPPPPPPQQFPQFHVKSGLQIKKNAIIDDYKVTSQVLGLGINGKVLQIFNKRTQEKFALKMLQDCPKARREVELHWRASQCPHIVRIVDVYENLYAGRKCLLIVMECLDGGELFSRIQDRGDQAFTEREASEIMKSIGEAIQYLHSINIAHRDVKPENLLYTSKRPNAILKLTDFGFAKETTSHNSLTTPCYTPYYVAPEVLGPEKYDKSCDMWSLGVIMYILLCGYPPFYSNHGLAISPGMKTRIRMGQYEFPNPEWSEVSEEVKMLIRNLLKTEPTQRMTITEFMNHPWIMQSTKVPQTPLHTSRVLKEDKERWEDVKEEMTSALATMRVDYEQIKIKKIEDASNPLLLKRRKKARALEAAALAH", "experiment": "Inhibition of MAPKAPK2 at 10 uM by colorimetric analysis"}, "[9]": {"target": "cAMP-dependent protein kinase catalytic subunit alpha (Homo sapiens) (UniProt P17612)", "experiment": "Inhibition of PKACa at 10 uM by colorimetric analysis"}, "[10]": {"target": "T4, Receptor-type tyrosine-protein kinase FLT3 (Homo sapiens, UniProt P36888)", "T4 sequence (P36888 whole entry)": "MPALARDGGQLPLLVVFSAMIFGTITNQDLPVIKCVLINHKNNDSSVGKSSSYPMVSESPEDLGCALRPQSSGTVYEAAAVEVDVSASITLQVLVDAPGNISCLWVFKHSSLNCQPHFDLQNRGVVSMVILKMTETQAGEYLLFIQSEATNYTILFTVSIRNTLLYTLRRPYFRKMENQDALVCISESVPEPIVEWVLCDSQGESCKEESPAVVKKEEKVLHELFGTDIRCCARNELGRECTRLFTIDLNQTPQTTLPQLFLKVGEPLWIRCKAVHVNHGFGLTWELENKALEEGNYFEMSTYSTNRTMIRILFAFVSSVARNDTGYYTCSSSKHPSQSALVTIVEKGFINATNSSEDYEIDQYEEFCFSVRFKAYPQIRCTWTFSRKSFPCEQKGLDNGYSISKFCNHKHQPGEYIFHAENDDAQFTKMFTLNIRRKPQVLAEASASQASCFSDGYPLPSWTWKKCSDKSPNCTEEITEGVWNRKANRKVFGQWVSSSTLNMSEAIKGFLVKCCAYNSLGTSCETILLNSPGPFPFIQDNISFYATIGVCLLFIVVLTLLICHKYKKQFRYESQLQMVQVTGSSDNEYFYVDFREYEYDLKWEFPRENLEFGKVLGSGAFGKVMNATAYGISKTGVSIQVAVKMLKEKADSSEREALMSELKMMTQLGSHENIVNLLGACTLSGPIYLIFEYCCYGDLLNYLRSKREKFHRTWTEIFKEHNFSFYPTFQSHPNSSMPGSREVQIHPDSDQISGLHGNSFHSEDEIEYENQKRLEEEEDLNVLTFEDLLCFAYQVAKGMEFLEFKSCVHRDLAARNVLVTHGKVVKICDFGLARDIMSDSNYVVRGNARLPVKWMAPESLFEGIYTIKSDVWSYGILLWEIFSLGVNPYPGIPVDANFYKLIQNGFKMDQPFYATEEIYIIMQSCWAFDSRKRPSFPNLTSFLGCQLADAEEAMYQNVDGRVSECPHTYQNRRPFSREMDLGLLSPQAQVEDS", "experiment": "Inhibition of FLT3 by colorimetric analysis"}}, "note": "Calls of active or inactive are those of the source. No cut-off for these calls is given here."}
{"smiles": "Clc1ccc(-n2cc(-c3ccncc3)nn2)cc1", "values": [{"measurement": "inhibition", "setting": "[1]", "result": "inactive"}, {"measurement": "inhibition", "setting": "[2]", "result": "inactive"}, {"measurement": "inhibition", "setting": "[3]", "result": "inactive"}, {"measurement": "inhibition", "setting": "[4]", "result": "inactive"}, {"measurement": "inhibition", "setting": "[5]", "result": "Active"}, {"measurement": "inhibition", "setting": "[6]", "result": "Active"}, {"measurement": "inhibition", "setting": "[7]", "result": "Active"}, {"measurement": "inhibition", "setting": "[8]", "result": "Active"}, {"measurement": "inhibition", "setting": "[9]", "result": "Active"}, {"measurement": "IC50", "setting": "[10]", "result": 5.8, "unit": "µM"}]}
{"smiles": "Clc1cccc(-n2cc(-c3ccncc3)nn2)c1", "values": [{"measurement": "inhibition", "setting": "[1]", "result": "inactive"}, {"measurement": "inhibition", "setting": "[2]", "result": "inactive"}, {"measurement": "inhibition", "setting": "[3]", "result": "inactive"}, {"measurement": "inhibition", "setting": "[4]", "result": "inactive"}, {"measurement": "inhibition", "setting": "[5]", "result": "Active"}, {"measurement": "inhibition", "setting": "[6]", "result": "Active"}, {"measurement": "inhibition", "setting": "[7]", "result": "Active"}, {"measurement": "inhibition", "setting": "[8]", "result": "Active"}, {"measurement": "inhibition", "setting": "[9]", "result": "Active"}, {"measurement": "IC50", "setting": "[10]", "result": 10.5, "unit": "µM"}]}
{"smiles": "Clc1ccc(-n2nncc2-c2ccncc2)cc1", "values": [{"measurement": "inhibition", "setting": "[1]", "result": "inactive"}, {"measurement": "inhibition", "setting": "[2]", "result": "inactive"}, {"measurement": "inhibition", "setting": "[3]", "result": "inactive"}, {"measurement": "inhibition", "setting": "[4]", "result": "inactive"}, {"measurement": "inhibition", "setting": "[5]", "result": "Active"}, {"measurement": "inhibition", "setting": "[6]", "result": "Active"}, {"measurement": "inhibition", "setting": "[7]", "result": "Active"}, {"measurement": "inhibition", "setting": "[8]", "result": "Active"}, {"measurement": "inhibition", "setting": "[9]", "result": "Active"}, {"measurement": "IC50", "setting": "[10]", "result": 1.7, "unit": "µM"}]}
{"smiles": "Clc1cccc(-n2nncc2-c2ccncc2)c1", "values": [{"measurement": "inhibition", "setting": "[1]", "result": "inactive"}, {"measurement": "inhibition", "setting": "[2]", "result": "inactive"}, {"measurement": "inhibition", "setting": "[3]", "result": "inactive"}, {"measurement": "inhibition", "setting": "[4]", "result": "inactive"}, {"measurement": "inhibition", "setting": "[5]", "result": "Active"}, {"measurement": "inhibition", "setting": "[6]", "result": "Active"}, {"measurement": "inhibition", "setting": "[7]", "result": "Active"}, {"measurement": "inhibition", "setting": "[8]", "result": "Active"}, {"measurement": "inhibition", "setting": "[9]", "result": "Active"}, {"measurement": "IC50", "setting": "[10]", "result": 4.4, "unit": "µM"}]}
